Laboratory results from patent US9107879B1, “Methods of increasing the cytotoxicity of chemotherapeutic agents with multisubstrate inhibitors of histone, protein-lys, polyamine acetylation, and polyamine metabolism” (Vanderbilt University, priority 2010, dated 2015).

Test system: histone H3 lysine 9 acetylation in H358 cells
Test: Western analysis of histone H3 lysine 9 acetylation/methylation
Type: cell-based
Conditions: for suppression of histone H3K9 acetylation: 50 μM, 12 hours post start of treatment
Protocol: (A) Structures of 1a, and the acetylated side chain of a lysine residue within the polypeptide chain of a protein targeted by the acetylating enzyme (R1 and R2 are the main chain elements on both sides of the lysyl residue). (B) [^3H]-thymidine incorporation into DNA of H358 cells pulsed for 6 hrs at three different time points after the addition of increasing concentrations of 1a, i.e., at 6-12 hrs (12 hr curve), at 18-24 hours (24 hr curve), or at 42-48 hrs (48 hr curve). Incorporation is represented as a percentage relative to control (untreated) cells. (C) Cell cycle analysis of propidium iodide-stained cells harvested at various times after addition of 50 μM 1a. % of cells in G1, S, and G2 represents the average of two independent profiles. (D) Western analysis of histone H3 lysine 9 acetylation, histone H3 lysine 56 acetylation, histone H3 lysine 9 methylation, and total histone H3, before “c” or at the indicated times after addition of 50 μM 1a. Each lane represents 60 μg cellular protein.
Each lane represents 175 μg cell lysate protein.
One 6 cm culture dish of H358 cells per treatment was used. Cells were treated with 50 μM spm-2, spm-3, or spd-3a for 12 hours. Histones were extracted from cells in 0.2M H2SO4 (as described in Furuta, T., et al (2003) J. Biol. Chem. 278: 20303-20312), followed by SDS-PAGE and Western blotting. Blots were probed with anti-acetyl histone H3-lysine 9 (Upstate Biotechnology, Inc.)
Cells were lysed by adding 1 mL of 0.2 M H2SO4. Histones were recovered as described in reference. SDS-PAGE/Western analysis was carried out as previously described using rabbit monoclonal antibody to total histone H3, rabbit polyclonal anti-trimethyl histone H3 (lysine 9), and anti-acetyl histone H3 (lysine 9). All antibodies were purchased from Upstate Biotechnology Inc. (Lake Placid, N.Y.).
In FIG. 2D, we carried out an immunoblot analysis of total histone H3, histone H3 acetylated on lysine 9 (H3-K9Ac), histone H3 acetylated on lysine 56 (H3-K56Ac) and histone H3 methylated on lysine 9 (H3-MeK9) in H358 cells, before treatment, and after 1, 12, 18, and 24 hours of treatment with 50 μM 1a. […] Acetylation levels are restored by 24 hours.
One 10-cm plate of H358 lung cancer cells (about 2×10^6 cells), grown in DMEM+10% Fetal bovine serum as described in reference, were treated for 24 hours with 50 μM1a inhibitor. Cells lysates were prepared as we have previously described (Lee C, et al., 2005, Cancer Res 65:9834-9842). Treated cells and untreated (control) cells were harvested by lysing in buffer containing 10 mM Hepes pH 7.5, 100 mM NaCl, 300 mM sucrose, 3 mM MgCl2, 1 mM EDTA, 1 mM DTT, 0.5% Triton X-100, 1 mM PMSF, protease inhibitor pellet (Roche) and analyzed on 10% SDS-PAGE gels, followed by Western immunoblot analysis of total histone H3, methylated histone H3 (methylated on lysine 9), and acetylated histone H3 (acetylated on lysine 9). […] Histone H3 methylation was not affected.

Compound	effect on histone H3 lysine 9 methylation (50 μM 1a)	histone H3 lysine 9 acetyl groups lost (50 μM 1a, within 1 hour)	histone H3 lysine 9 acetyl groups lost (50 μM 1a, within 12 hours) [%]	histone H3 K9 acetyl groups lost (Example 1: 50 μM 1a, 24 hours, cell lysate)	suppression of histone H3K9 acetylation	suppression of histone H3K9 acetylation (listed as spd-3a)
CC(C)(COP(=O)(O)OP(=O)(O)OC[C@H]1O[C@@H](n2cnc3c(N)ncnc32)[C@H](O)[C@@H]1OP(=O)(O)O)[C@@H](O)C(=O)NCCC(=O)NCCSCC(=O)NCCCNCCCCN [1a, spermidine[N1]-CoA]	no effect	over 50%	~98	over 80%	–	–
CC(=O)NCCSCC(=O)NCCCNCCCCN [3a]	–	–	–	–	nearly complete ablation of histone H3K9 acetylation	suppress histone acetylation
CC(=O)NCCSCC(=O)NCCCNCCCCNCCCN [spm-3]	–	–	–	–	suppress histone acetylation	–
